For 25 molecules, IC50 results are on record in US12679843B2, “Pyrrolopyrimidine amines as complement inhibitors” (BioCryst Pharmaceuticals, Inc., priority 2020, dated 2026).

SMILES strings stand for the structures. pIC50: −log10 of the molar value.

Chain of Factor D (P00746 26-253): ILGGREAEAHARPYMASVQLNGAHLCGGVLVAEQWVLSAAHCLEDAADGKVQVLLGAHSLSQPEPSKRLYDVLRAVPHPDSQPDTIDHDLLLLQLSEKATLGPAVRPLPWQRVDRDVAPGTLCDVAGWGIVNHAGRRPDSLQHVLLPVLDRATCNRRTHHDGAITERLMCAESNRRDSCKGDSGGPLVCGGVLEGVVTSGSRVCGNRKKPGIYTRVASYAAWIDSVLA

The target in the test is Factor D (Homo sapiens, UniProt P00746). As to the kind of experiment: Factor D esterolytic assay (Z-Lys-SBzl thioester substrate, DTNB, 405 nm). The format is biochemical. The conditions noted are these: substrate Z-Lys-SBzl 1.29 mM, 100 mM HEPES, 500 mM NaCl, pH 7.5, 10% DMSO, tested a minimum of three times. The method, boiled down:
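Run in pH 7.5 HEPES (100 mM) with 500 mM NaCl and 10% DMSO, with compound preincubated at room temperature or not before adding 1.29 mM Z-Lys-SBzl. Free thiol released by Factor D reacts with DTNB, and rate is followed at 405 nm minus 690 nm over 600 s. IC50 derives from rate-based inhibition, minimum three replicates.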
Consider `Cc1cc(C(F)(F)F)cc2c3c(N)ncnc3n(CC(=O)N3[C@H](C(=O)Nc4cncc(Cl)n4)C[C@@]4(C)C[C@@H]34)c12` [Compound 327c, (1R,3S,5R)-2-(2-(4-amino-8-methyl-6-(trifluoromethyl)-9H-pyrimido[4,5-b]indol-9-yl)acetyl)-N-(6-chloropyrazin-2-yl)-5-methyl-2-azabicyclo[3.1.0]hexane-3-carboxamide], for which the pIC50 was more than 7.00.

Turning to `CC1(C)CC(O)CC(NC(=O)[C@@H]2C[C@H]3C[C@H]3N2C(=O)Cn2cnc3c(N)ncnc32)C1` (mixture of isomers) [Compound 106b, (1R,3S,5R)-2-(2-(6-amino-9H-purin-9-yl)acetyl)-N-(5-hydroxy-3,3-dimethylcyclohexyl)-2-azabicyclo[3.1.0]hexane-3-carboxamide], the pIC50 is less than 6.00.

For the molecule `Cc1ccc(Br)nc1NC(=O)[C@@H]1C[C@@](C)(F)CN1C(=O)Cn1c2ncnc(N)c2c2cc(C(F)(F)F)cc(C)c21` [Compound 323a, (2S,4R)-1-(2-(4-amino-8-methyl-6-(trifluoromethyl)-9H-pyrimido[4,5-b]indol-9-yl)acetyl)-N-(6-bromo-3-methylpyridin-2-yl)-4-fluoro-4-methylpyrrolidine-2-carboxamide], the pIC50 is more than 7.00.

In the case of `Nc1ncnc2c1c1cnccc1n2CC(=O)N1[C@@H]2C[C@@H]2C[C@H]1C(=O)Nc1cccc(Br)n1` [Compound 163g, (1R,3S,5R)-2-(2-(4-amino-9H-pyrido[3′,4′:4,5]pyrrolo[2,3-d]pyrimidin-9-yl)acetyl)-N-(6-bromopyridin-2-yl)-2-azabicyclo[3.1.0]hexane-3-carboxamide], the pIC50 was more than 7.00.

Consider `Nc1ncnc2c1c1cc(C(F)(F)F)ccc1n2CC(=O)N1CCS[C@H]1C(=O)Nc1cccc(Br)n1` [Compound 171b, (S)-3-(2-(4-amino-6-(trifluoromethyl)-9H-pyrimido[4,5-b]indol-9-yl)acetyl)-N-(6-bromopyridin-2-yl)thiazolidine-2-carboxamide], for which the pIC50 was more than 7.00.

`C[C@@]12C[C@@H](C(=O)Nc3cccc(Br)n3)N(C(=O)Cn3c4ccc(OC(F)(F)F)cc4c4c(N)ncnc43)[C@@H]1C2` [Compound 334a, (1R,3S,5R)-2-(2-(4-amino-6-(trifluoromethoxy)-9H-pyrimido[4,5-b]indol-9-yl)acetyl)-N-(6-bromopyridin-2-yl)-5-methyl-2-azabicyclo[3.1.0]hexane-3-carboxamide]: the pIC50 is more than 7.00. With `COC(=O)c1cnc2c(ccn2CC(=O)N2[C@@H]3C[C@@H]3C[C@H]2C(=O)Nc2cccc(Br)n2)c1` [Compound 127d, methyl 1-(2-((1R,3S,5R)-3-((6-bromopyridin-2-yl)carbamoyl)-2-azabicyclo[3.1.0]hexan-2-yl)-2-oxoethyl)-1H-pyrrolo[2,3-b]pyridine-5-carboxylate], the pIC50 is less than 6.00. For the molecule `Nc1ncnc2c1c1cc(-c3ccoc3)ccc1n2CC(=O)N1[C@@H]2C[C@@H]2C[C@H]1C(=O)Nc1cccc(Br)n1` [Compound 275c, (1R,3S,5R)-2-(2-(4-amino-6-(furan-3-yl)-9H-pyrimido[4,5-b]indol-9-yl)acetyl)-N-(6-bromopyridin-2-yl)-2-azabicyclo[3.1.0]hexane-3-carboxamide], the pIC50 is more than 7.00. In the case of `Nc1ncnc2c1c1cc(Cl)ccc1n2CC(=O)N1[C@@H]2C[C@@H]2C[C@H]1C(=O)Nc1cccc(Br)n1` [Compound 236f, (1R,3S,5R)-2-(2-(4-amino-6-chloro-9H-pyrimido[4,5-b]indol-9-yl)acetyl)-N-(6-bromopyridin-2-yl)-2-azabicyclo[3.1.0]hexane-3-carboxamide] it was more than 7.00. To `Nc1ncnc2c1c(-c1cc3ccccc3[nH]1)cn2CC(=O)N1C[C@H](F)C[C@H]1C(=O)NCc1cccc(Cl)c1F` [Compound 133b, (2S,4R)-1-(2-(4-amino-5-(1H-indol-2-yl)-7H-pyrrolo[2,3-d]pyrimidin-7-yl)acetyl)-N-(3-chloro-2-fluorobenzyl)-4-fluoropyrrolidine-2-carboxamide] belongs more than 7.00; to `Nc1ncnc2c1c1cc([N+](=O)[O-])ccc1n2CC(=O)N1[C@@H]2C[C@@H]2C[C@H]1C(=O)Nc1cccc(Br)n1` [Compound 188g, (1R,3S,5R)-2-(2-(4-amino-6-nitro-9H-pyrimido[4,5-b]indol-9-yl)acetyl)-N-(6-bromopyridin-2-yl)-2-azabicyclo[3.1.0]hexane-3-carboxamide], more than 7.00. Turning to `Nc1ncnc2c1c1ccncc1n2CC(=O)N1[C@@H]2C[C@@H]2C[C@H]1C(=O)Nc1cccc(Br)n1` [Compound 29f, (1R,3S,5R)-2-(2-(4-amino-9H-pyrido[4′,3′:4,5]pyrrolo[2,3-d]pyrimidin-9-yl)acetyl)-N-(6-bromopyridin-2-yl)-2-azabicyclo[3.1.0]hexane-3-carboxamide], the pIC50 is more than 7.00.

As for `Cc1ncc(NC(=O)[C@@H]2C[C@@]3(C)C[C@H]3N2C(=O)Cn2c3ncnc(N)c3c3cc(C(F)(F)F)cc(C)c32)nc1Cl` [Compound 364e, (1R,3S,5R)-2-(2-(4-amino-8-methyl-6-(trifluoromethyl)-9H-pyrimido[4,5-b]indol-9-yl)acetyl)-N-(6-chloro-5-methylpyrazin-2-yl)-5-methyl-2-azabicyclo[3.1.0]hexane-3-carboxamide], the pIC50 is more than 7.00.

As for `Cc1cc2c3c(N)ncnc3n(CC(=O)N3[C@@H]4C[C@@H]4C[C@H]3C(=O)Nc3cccc(Br)n3)c2cc1F` [Compound 384g, (1R,3S,5R)-2-(2-(4-amino-7-fluoro-6-methyl-9H-pyrimido[4,5-b]indol-9-yl)acetyl)-N-(6-bromopyridin-2-yl)-2-azabicyclo[3.1.0]hexane-3-carboxamide], the pIC50 is more than 7.00. For `O=C(O)c1cnc2c(ccn2CC(=O)N2[C@@H]3C[C@@H]3C[C@H]2C(=O)Nc2cccc(Br)n2)c1` [Compound 128a, 1-(2-((1R,3S,5R)-3-((6-bromopyridin-2-yl)carbamoyl)-2-azabicyclo[3.1.0]hexan-2-yl)-2-oxoethyl)-1H-pyrrolo[2,3-b]pyridine-5-carboxylic acid], the pIC50 is less than 6.00. As to `Cc1ccnc2c3c(N)ncnc3n(CC(=O)N3[C@H](C(=O)Nc4cccc(Br)n4)C[C@@]4(C)C[C@@H]34)c12` [Compound 283g, (1R,3S,5R)-2-(2-(4-amino-8-methyl-9H-pyrido[2′,3′:4,5]pyrrolo[2,3-d]pyrimidin-9-yl)acetyl)-N-(6-bromopyridin-2-yl)-5-methyl-2-azabicyclo[3.1.0]hexane-3-carboxamide], the pIC50 was more than 7.00.

As to `Cc1cc(C(F)(F)F)cc2c3c(N)ncnc3n(CC(=O)N3[C@@H]4C[C@@H]4C[C@H]3C(=O)Nc3nc(Cl)ccc3F)c12` [Compound 319c, (1R,3S,5R)-2-(2-(4-amino-8-methyl-6-(trifluoromethyl)-9H-pyrimido[4,5-b]indol-9-yl)acetyl)-N-(6-chloro-3-fluoropyridin-2-yl)-2-azabicyclo[3.1.0]hexane-3-carboxamide], the pIC50 was more than 7.00. Regarding `Nc1ncnc2c1c1cc(Br)cc(F)c1n2CC(=O)N1[C@@H]2C[C@@H]2C[C@H]1C(=O)Nc1cccc(Br)n1` [Compound 376g, (1R,3S,5R)-2-(2-(4-amino-6-bromo-8-fluoro-9H-pyrimido[4,5-b]indol-9-yl)acetyl)-N-(6-bromopyridin-2-yl)-2-azabicyclo[3.1.0]hexane-3-carboxamide], the pIC50 was more than 7.00. In the case of `Nc1ncnc2c1ncn2CC(=O)N1[C@@H]2C[C@@H]2C[C@H]1C(=O)NC1CCCC(Cl)(Cl)C1` (stereo partly drawn) [Compound 102b, (1R,3S,5R)-2-(2-(6-amino-9H-purin-9-yl)acetyl)-N-(3,3-dichlorocyclohexyl)-2-azabicyclo[3.1.0]hexane-3-carboxamide] it was 6.00 to 7.00; in that of `Cc1cc(C(F)(F)F)cc2c3c(N)ncnc3n(CC(=O)N3[C@@H]4C[C@@H]4C[C@H]3C(=O)Nc3cncc(Cl)n3)c12` [Compound 326c, (1R,3S,5R)-2-(2-(4-amino-8-methyl-6-(trifluoromethyl)-9H-pyrimido[4,5-b]indol-9-yl)acetyl)-N-(6-chloropyrazin-2-yl)-2-azabicyclo[3.1.0]hexane-3-carboxamide], more than 7.00; in that of `Cc1cccc2c3c(N)ncnc3n(CC(=O)N3[C@H](C(=O)Nc4cccc(Br)n4)C[C@@]4(C)C[C@@H]34)c12` [Compound 55a, (1R,3S,5R)-2-(2-(4-amino-8-methyl-9H-pyrimido[4,5-b]indol-9-yl)acetyl)-N-(6-bromopyridin-2-yl)-5-methyl-2-azabicyclo[3.1.0]hexane-3-carboxamide], more than 7.00. `Nc1ncnc2c1cc1n2C(C(=O)N2[C@@H](C(=O)Nc3cccc(Br)n3)C[C@@H]3C[C@@H]32)Oc2ccccc2-1` (single isomer, unassigned) [Compound 293a]: the pIC50 was 6.00 to 7.00. As to `Cc1ccc(Cl)nc1NC(=O)[C@@H]1C[C@@]2(C)C[C@H]2N1C(=O)Cn1c2ncnc(N)c2c2cc(C(F)(F)F)cc(C)c21` [Compound 332c, (1R,3S,5R)-2-(2-(4-amino-8-methyl-6-(trifluoromethyl)-9H-pyrimido[4,5-b]indol-9-yl)acetyl)-N-(6-chloro-3-methylpyridin-2-yl)-5-methyl-2-azabicyclo[3.1.0]hexane-3-carboxamide], the pIC50 was more than 7.00. Turning to `Nc1nc(Cl)nc2c1ccn2CC(=O)N1[C@@H]2C[C@@H]2C[C@H]1C(=O)Nc1cccc(Br)n1` [Compound 90d, (1R,3S,5R)-2-(2-(4-amino-2-chloro-7H-pyrrolo[2,3-d]pyrimidin-7-yl)acetyl)-N-(6-bromopyridin-2-yl)-2-azabicyclo[3.1.0]hexane-3-carboxamide], the pIC50 was less than 6.00. With `Cc1cc(C(F)(F)F)cc2c3c(N)ncnc3n(CC(=O)N3[C@@H]4C[C@@H]4C[C@H]3C(=O)Nc3cccc(C(F)(F)F)n3)c12` [Compound 349c, (1R,3S,5R)-2-(2-(4-amino-8-methyl-6-(trifluoromethyl)-9H-pyrimido[4,5-b]indol-9-yl)acetyl)-N-(6-(trifluoromethyl)pyridin-2-yl)-2-azabicyclo[3.1.0]hexane-3-carboxamide], the negative logarithm of the IC50 (pIC50) was more than 7.00.
